# From ChEMBL document CHEMBL3045794, “Antimicrobial activity of thiazolyl benzenesulfonamide-condensed 2,4-thiazolidinediones derivatives” (2013)
# Assays:
# [1] = test system: Escherichia coli; assay: Antibacterial activity against Escherichia coli MTCC 739 assessed as growth inhibition after 24 hr by Kirby-Bauer disk diffusion method; type: functional; conditions: MTCC 739, 24 h
# [2] = test system: Mycobacterium tuberculosis; assay: Antitubercular activity against Mycobacterium tuberculosis H37Rv MTCC 200 assessed as growth inhibition measured within 10 days by BACTEC MGIT method; type: functional; conditions: H37Rv MTCC 200, 240 h
# [3] = test system: Bacillus subtilis; assay: Antibacterial activity against Bacillus subtilis MTCC 619 assessed as diameter of growth inhibition zone after 24 hr by Kirby-Bauer disk diffusion method; type: functional
# [4] = test system: Staphylococcus aureus; assay: Antibacterial activity against Staphylococcus aureus MTCC 96 assessed as diameter of growth inhibition zone after 24 hr by Kirby-Bauer disk diffusion method; type: functional
# [5] = test system: Pseudomonas aeruginosa; assay: Antibacterial activity against Pseudomonas aeruginosa MTCC 741 assessed as diameter of growth inhibition zone after 24 hr by Kirby-Bauer disk diffusion method; type: functional
# [6] = test system: Pseudomonas aeruginosa; assay: Antibacterial activity against Pseudomonas aeruginosa MTCC 741 assessed as growth inhibition after 24 hr by Kirby-Bauer disk diffusion method; type: functional; conditions: MTCC 741, 24 h
# [7] = test system: Escherichia coli; assay: Antibacterial activity against Escherichia coli MTCC 739 assessed as diameter of growth inhibition zone after 24 hr by Kirby-Bauer disk diffusion method; type: functional
# [8] = test system: Staphylococcus aureus; assay: Antibacterial activity against Staphylococcus aureus MTCC 96 assessed as growth inhibition after 24 hr by Kirby-Bauer disk diffusion method; type: functional; conditions: MTCC 96, 24 h
# [9] = test system: Bacillus subtilis; assay: Antibacterial activity against Bacillus subtilis MTCC 619 assessed as growth inhibition after 24 hr by Kirby-Bauer disk diffusion method; type: functional; conditions: MTCC 619, 24 h
# [10] = test system: Pseudomonas aeruginosa; assay: microbe, parasite or virus in culture; conditions: MTCC 741, 24 h, read-out: DIZ
# Description: Antibacterial activity against Pseudomonas aeruginosa MTCC 741 assessed as diameter of growth inhibition zone at 100 ug/disk after 24 hr by Kirby-Bauer disk diffusion method
# [11] = test system: Bacillus subtilis; assay: microbe, parasite or virus in culture; conditions: MTCC 619, 24 h, read-out: DIZ
# Description: Antibacterial activity against Bacillus subtilis MTCC 619 assessed as diameter of growth inhibition zone at 100 ug/disk after 24 hr by Kirby-Bauer disk diffusion method
# [12] = test system: Escherichia coli; assay: microbe, parasite or virus in culture; conditions: MTCC 739, 24 h, read-out: DIZ
# Description: Antibacterial activity against Escherichia coli MTCC 739 assessed as diameter of growth inhibition zone at 100 ug/disk after 24 hr by Kirby-Bauer disk diffusion method
# [13] = test system: Staphylococcus aureus; assay: Antibacterial activity against Staphylococcus aureus MTCC 96 assessed as diameter of growth inhibition zone at 100 ug/disk after 24 hr by Kirby-Bauer disk diffusion method; conditions: MTCC 96, 24 h, read-out: DIZ
Compound,MIC [1] [µg/mL],MIC99 [2] [µg/mL],diameter of the inhibition zone (DIZ) [3] [mm],diameter of the inhibition zone (DIZ) [4] [mm],diameter of the inhibition zone (DIZ) [5] [mm],MIC [6] [µg/mL],diameter of the inhibition zone (DIZ) [7] [mm],MIC [8] [µg/mL],MIC [9] [µg/mL],zone of inhibition at 100 µg/disc [10] [mm],zone of inhibition at 100 µg/disc [11] [mm],zone of inhibition at 100 µg/disc [12] [mm],zone of inhibition at 100 µg/disc [13] [mm]
O=C1S/C(=C\c2ccc(S(=O)(=O)Nc3nc(-c4ccccc4)cs3)cc2)C(=O)N1C(=O)c1ccccc1,62.5,125,24,21,22,62.5,22,62.5,25,–,–,–,–
O=C(O)c1cn(C2CC2)c2cc(N3CCNCC3)c(F)cc2c1=O [CIPROFLOXACIN],≤ 1,–,–,–,–,≤ 1,–,≤ 1,≤ 1,31,33,30,32
O=C1S/C(=C\c2ccc(S(=O)(=O)Nc3nc(-c4ccccc4)cs3)cc2)C(=O)N1C(=O)c1ccccc1Cl,12.5,62.5,26,24,24,12.5,25,6.25,6.25,–,–,–,–
Cc1cccc(C(=O)N2C(=O)S/C(=C\c3ccc(S(=O)(=O)Nc4nc(-c5ccccc5)cs4)cc3)C2=O)c1,100,125,18,18,19,100,18,100,100,–,–,–,–
O=C1S/C(=C\c2ccc(S(=O)(=O)Nc3nc(-c4ccccc4)cs3)cc2)C(=O)N1C(=O)c1ccc(Cl)cc1,25,62.5,26,24,22,12.5,23,6.25,6.25,–,–,–,–
O=C1S/C(=C\c2ccc(S(=O)(=O)Nc3nc(-c4ccccc4)cs3)cc2)C(=O)N1C(=O)c1cccc([N+](=O)[O-])c1,62.5,1000,24,21,22,62.5,22,62.5,25,–,–,–,–
O=C1S/C(=C\c2ccc(S(=O)(=O)Nc3nc(-c4ccccc4)cs3)cc2)C(=O)N1C(=O)c1ccc([N+](=O)[O-])cc1[N+](=O)[O-],12.5,1000,22,23,22,100,24,12.5,6.25,–,–,–,–
O=C1S/C(=C\c2ccc(S(=O)(=O)Nc3nc(-c4ccccc4)cs3)cc2)C(=O)N1C(=O)c1cccc(Cl)c1,25,62.5,25,26,24,25,24,12.5,12.5,–,–,–,–
O=C1S/C(=C\c2ccc(S(=O)(=O)Nc3nc(-c4ccccc4)cs3)cc2)C(=O)N1C(=O)c1ccc([N+](=O)[O-])cc1,50,500,24,25,24,25,24,25,12.5,–,–,–,–
NNC(=O)c1ccncc1 [ISONIAZID],–,0.2,–,–,–,–,–,–,–,–,–,–,–
Cc1ccc(C(=O)N2C(=O)S/C(=C\c3ccc(S(=O)(=O)Nc4nc(-c5ccccc5)cs4)cc3)C2=O)cc1,50,250,23,22,22,50,22,50,50,–,–,–,–
